One test has as its system Caov-3. Put plainly: Cell viability (CellTiter-Glo) and combination index, ovarian cell line. As to conditions: combination with VIDAZA, 3 days, CalcuSyn, Chou-Talalay. In kind it is cell-based. On the procedure:
(§1) Cell viability was assessed using the Cell Titer-Glo® Luminescent Cell Viability Assay, Catalog Number G7570 (Promega Corporation, Madison, Wis.). The assay is a homogenous method of determining the number of viable cells in culture based on quantitation of the adenosine triphosphate (ATP) present, an indicator of metabolically active cells. The homogenous assay procedure involves adding the single reagent (CellTiter-Glo Reagent) directly to cells cultured in serum-supplemented medium. Cells were plated into a 96-well flat bottom plate (Costar Catalog Number 33595) at densities that were previously optimized for each cell line. The cells were incubated overnight in 5% CO2 at 37° C. The following day, compound dilutions were prepared and all concentrations were assayed in triplicate. The cells were incubated with a TOR kinase inhibitor or a TOR kinase inhibitor and a second active agent, in 5% CO2 at 37° C. for 3 days. After a 3-day incubation period, 100 μL, of CellTiter-Glo reagent was added to each well for 2 min with shaking and further incubated for 10 min (no shaking) at room temperature to stabilize the signal. The luminescence was measured on the VICTOR X2 multilabel plate reader. The percent growth inhibition was calculated using the DMSO control in the same plate (no compound) response as 100% cell growth. For single compound treatments (TORKi and second active agents separately), the average values from triplicates were plotted to obtain IC50 values using software XLfit from IDBS. The formula used for determining IC50 in XLfit was model number 205, which utilizes a 4 Parameter Logistic Model or Sigmoidal Dose-Response Model to calculate the IC50 values.
(§2) The cell viability assay was first performed with the TOR kinase inhibitor and the individual second active agents, to determine the dose range for subsequent combination studies. […] The TOR kinase inhibitor and the second active agent were each added to one well containing a final concentration of 0.2% DMSO (in triplicate). In the same plate in triplicate, the cells were treated with the TOR kinase inhibitor and each second active agent either simultaneously or sequentially (containing 0.2% DMSO). The number of cells affected by compound treatment was normalized to the DMSO control (100% viability) and the data was imported into the CalcuSyn software (V2.1, Biosoft). Synergism was quantitated by the combination index (CI) using CalcuSyn according to Chou-Talalay's CI method with mathematical modeling and simulations. […] ED50 is the median effect dose at which a 50% growth inhibition is achieved.

A further test concerns Ovcar-5. The description is as above. As to conditions: combination with VIDAZA, 3 days, CalcuSyn, Chou-Talalay. It is filed as cell-based. The protocol: as §1, §2
The subject of a further test is Ovcar-3. The description is as above. It is filed as cell-based. As to conditions: combination with VIDAZA, 3 days, CalcuSyn, Chou-Talalay. On the procedure:
as §1, §2

The next test has as its system Ovcar-8. The description is as above. It is filed as cell-based. As to conditions: combination with VIDAZA, 3 days, CalcuSyn, Chou-Talalay. The protocol:
as §1, §2

Another test has as its system Ovcar-4. The test is described as above. The following applies: combination with VIDAZA, 3 days, CalcuSyn, Chou-Talalay. In kind it is cell-based. On the procedure: as §1, §2
In another test the test system is HepG2 cells. Kind of test: Anchorage independent growth (colony formation) assay. In kind it is cell-based, Human. The following applies: single agent; for colony formation: 8 days. The protocol:
(§3) The effect of Compound 1 on anchorage-independent growth (AIG) was assessed by colony formation assay in 2 Human Hepatocellular Carcinoma (“HHC”) cell lines, HepG2 and SK-Hep-1.
(§4) Cell Lines/Cells. Human cell lines HepG2 and SK-Hep-1 cells were obtained from American Type Culture Collection (ATCC; Manassas, Va.). Cells were cultured in DMEM (Dulbecco's Modified Eagle's Medium) (Mediatech; Mannasas, Va.) with 10% Premium FBS (Lonza, Walkersville, Md.).
(§5) (1) Single Agent Colony Formation Assay. Nobel Agar (1.2 grams; BD; Franklin Lakes, N.J.) was placed in a 100-mL sterile bottle. Sterile water (100 mL) was added and microwaved until the agar boiled. Equal volumes of agar and 2×RPMI medium (ECE Scientific; Doylestown, Pa.) were mixed and 300 μL were transferred to each well in a 24-well flat bottom plate (BD; Franklin Lakes, N.J.). Plates were kept at 4° C. until the agar solidified. Cultures of HepG2 and SK-Hep-1 cells were harvested and resuspended in culture medium at 3.6×10^3 cells/mL. Equal volumes of agar, 2×RPMI, and cell suspension (1:1:1) were mixed in a sterile tube and 500 μL/well were immediately transferred into the 24-well plates. Plates were kept at 4° C. until the agar solidified. Culture medium (500 μL) containing compound or DMSO was added to each well (final DMSO concentration for each treatment was 0.2%). Compound 1 was tested at final concentrations of 0.1, 0.3, 1, 3, 10 and 30 μM. 5-AZA was tested at final concentrations of 1, 3 and 10 μM. Cell treatments were set up in triplicate. Cells were incubated for 8-10 days at 37° C. in a 5% CO2 atmosphere. Photographs (2× magnification) of each well were taken using a Nikon DXM1200 Digital Camera and Nikon ACT1 software and saved as a TIFF file. ImageQuant TL (GE Healthcare; Piscataway, N.J.) Colony Count Software was used to count colonies. (2) Combination Study Colony Formation Assay. Nobel Agar (1.2 grams; BD; Franklin Lakes, N.J.) was placed in a 100-mL sterile bottle. Sterile water (100 mL) was added and microwaved until the agar boiled. Equal volumes of agar and 2×RPMI medium (ECE Scientific; Doylestown, Pa.) were mixed and 300 μL were transferred to each well in a 24-well flat bottom plate (BD; Franklin Lakes, N.J.). Plates were kept at 4° C. until the agar solidified. Cultures of HepG2 and SK-Hep-1 cells were harvested and resuspended in culture medium at 3.6×10^3 cells/mL. Equal volumes of agar, 2×RPMI, and cell suspension (1:1:1) were mixed in a sterile tube and 500 μL/well were immediately transferred into the 24-well plates. Plates were kept at 4° C. until the agar solidified. Culture medium (500 μL) containing compound or DMSO was added to each well (final DMSO concentration for each treatment was 0.2%). Cells were treated with single treatment as follows: Compound 1 was tested at final concentrations of 0.1 and 0.3 μM. 5-AZA was tested at 3 μM. Combinations of Compound 1 at 0.1 and 0.3 μM were tested with 3 μM 5-AZA. Cell treatments were set up in triplicate. Cells were incubated for 8-10 days at 37° C. in a 5% CO2 atmosphere. Photographs (2× magnification) of each well were taken using a Nikon DXM1200 Digital Camera and Nikon ACT1 software and saved as a TIFF file. ImageQuant TL (GE Healthcare; Piscataway, N.J.) Colony Count Software was used to count colonies.
(§6) Significance versus the DMSO control was calculated using One Way ANOVA and Dunnett's Post test or unpaired t tests using GraphPad Prism v5.01. To evaluate the combinatory effect, data from the three independent experiments were analyzed by comparing the combinatory response against the theoretical additive response of the two agents.

A further test relates to SK-Hep-1 cells. The description is as above. The following applies: single agent. It is filed as cell-based, Human. The protocol: as §3, §4, §5, §6
Test [1] has as its system seventeen breast cancer cell line panel. Put plainly: Anti-proliferation assay (ATPLite), breast cancer cell line panel. As to conditions: cell lines where inhibition levels greater than fifty percent were reached; 72 h; read-out: median GI50. It is filed as cell-based. On the procedure: Cells were thawed from a liquid nitrogen preserved state. Once cells expanded and divided at their expected doubling times, screening began.
Cells were equilibrated in assay plates via centrifugation and placed in incubators attached to the Dosing Modules at 37° C. for twenty-four hours before treatment. […] These T zero (T0) plates were read using ultra-sensitive luminescence on Envision Plate Readers. Treated assay plates were incubated with compound (single compound or combination) for seventy-two hours. After seventy-two hours, plates were developed for endpoint analysis using ATPLite. All data points were collected via automated processes; quality controlled; and analyzed. Assay plates were accepted if they passed the following quality control standards: relative luciferase values were consistent throughout the entire experiment, Z-factor scores were greater than 0.6, untreated/vehicle controls behaved consistently on the plate. The calculation for synergy score is provided below.
Growth Inhibition (GI) was used as a measure of cell viability. The cell viability of vehicle was measured at the time of dosing (T0) and after seventy-two hours (T72). A GI reading of 0% represents no growth inhibition—cells treated with compound and T72 vehicle signals are matched. […] GI was calculated by applying the following test and equation: If T<V0:100*[1−(T−V0)/V0] […]

In test [2] the test system is subjects with higher-risk MDS. As to conditions: Phase III study, administered subcutaneously; cited from earlier work.
The mark [3] stands for this setting: concentrations of 0.1 to 100 μM.

In the case of `CO[C@H]1CC[C@H](N2C(=O)CNc3ncc(-c4ccc(C(C)(C)O)nc4)nc32)CC1` [Compound 1, 7-(6-(2-hydroxypropan-2-yl)pyridin-3-yl)-1-((1r,4r)-4-methoxycyclohexyl)-3,4-dihydropyrazino-[2,3-b]pyrazin-2(1H)-one], the “Combination index (CI) at the ED50” value in the test with Caov-3 is 1.08; in the test with Ovcar-5, 0.92; in the test on Ovcar-3 it was 1.23; with Ovcar-8, 0.99; with Ovcar-4, 0.99. In addition, the colony formation is reported as 74 % of control with HepG2 cells (0.1 μM); 57 % of control in the test on HepG2 cells (0.3 μM); 33 % of control with HepG2 cells (1 μM); 24 % of control in the test with HepG2 cells (3 μM); 16 % of control with HepG2 cells (10 μM); 11 % of control with HepG2 cells (30 μM). In addition, the colony formation in the test with SK-Hep-1 cells (0.3-30 μM, 8-10 days) is recorded as 0-45 % of control. In addition, the anti-colony forming activity entry is “dose-dependent and significant anti-colony forming activity” with HepG2 cells (setting [3]); “dose-dependent and significant anti-colony forming activity” in the test with SK-Hep-1 cells (setting [3]). For the same molecule, the “inhibition of colony formation” value with SK-Hep-1 cells (3 μM and higher) is 100%.
A word on the GI50: it is the concentration that inhibits growth by half. In the case of `CCN1C(=O)CNc2ncc(-c3ccc(-c4nc[nH]n4)nc3C)nc21` [Compound 2, 1-ethyl-7-(2-methyl-6-(1H-1,2,4-triazol-3-yl)pyridin-3-yl)-3,4-dihydropyrazino[2,3-b]pyrazin-2(1H)-one], the GI50 in [1] came to 140 nM.
For `Cc1nc(-c2nnc[nH]2)ccc1-c1cnc2c(n1)N(CCC1CCOCC1)C(=O)CN2` [Compound 3, 7-(2-methyl-6-(4H-1,2,4-triazol-3-yl)pyridin-3-yl)-1-(2-(tetrahydro-2H-pyran-4-yl)ethyl)-3,4-dihydropyrazino[2,3-b]pyrazin-2(1H)-one], the “Combination index (CI) at the ED50” value is on record as 0.92 in the test with Caov-3; 0.76 in the test on Ovcar-5; 0.55 with Ovcar-3; 0.81 with Ovcar-8; 0.61 with Ovcar-4.
`Nc1ncn([C@@H]2O[C@H](CO)[C@@H](O)[C@H]2O)c(=O)n1` [Compound 5-AZA, 4-amino-1-β-D-ribofuranosyl-1,3,5-triazin-2(1H)-one, reference compound]: in test [2], the “survival and time to AML transformation or death” value was “significantly prolonged survival and time to AML transformation or death”. The colony formation in the test on HepG2 cells (at 1, 3 and 10 μM) is 43-76 % of control; in the test with SK-Hep-1 cells (10 μM, 8 days), 38 % of control.

Source of the values: US9782427B2, “Methods for treating cancer using TOR kinase inhibitor combination therapy” (Signal Pharmaceuticals, LLC, priority 2013, dated 2017).
